Where “and” joins values, the source holds several entries; their conditions need not be identical. Equal values may be shown once.
Experiments:
[1] = molecular target: T1, hM3Dq (Homo sapiens, UniProt P20309, A239G/Y149C); assay: [11C]clozapine PET DREADD occupancy in AAV-DREADD mice, hM3Dq; conditions: 0.1 mg kg-1 IP, individual values, listed as J52
Protocol: Animals were anesthetized with isoflurane or a mix of ketamine/xylazine and prepped on a stereotaxic apparatus (Kopf, Germany). […] When indicated, animals were pretreated with vehicle or the indicated drug 10 min before the injection of the PET radiotracer. Total acquisition time was 60 min.
In all cases, the PET data were reconstructed and corrected for dead-time and radioactive decay. All qualitative and quantitative assessments of PET images were performed using the PMOD software environment (PMOD Technologies, Zurich Switzerland). Binding potential BPND (a relative measure of specific binding) was calculated using a reference tissue model using the cerebellum as a reference tissue in rodents. In macaques, the kinetic data were fitted to a two-tissue compartment model and the concentration of parent in plasma was used as an input function, then the volume of distribution ratios compared to cerebellum were calculated to establish BPND. In all cases, the dynamic PET images were coregistered to MRI templates and time-activity curves were generated using predefined volumes of interest (macaques) or manually drawn in rodents and the described analyses were performed. Receptor occupancy was calculated using the formula: occupancy = (BPND^0 − BPND^Drug)/BPND^0 × 100, where BPND^0 is the binding potential of the baseline condition and BPND^Drug the binding potential when the animals were pretreated with the drug.

[2] = molecular target: T1, hM3Dq; assay: DREADD-assisted metabolic mapping (DREAMM), [18F]FDG PET in D1-hM3Dq mice; type: in vivo, mouse; parameters: 026220; host or cells: mouse brain, dopamine D1 receptor-expressing neurons (transgene); conditions: 0.1 mg kg-1 IP
Protocol: Mice (D1-hM3Dq, D1-hM4Di or WT littermates, see above) were habituated to experimenter handling and fasted 16 h before the experiment. On the day of the experiment, mice received an IP injection of vehicle (1 ml kg^−1) and were placed back into their home cages. Ten minutes later, mice were injected (IP) with 11 MBq of 2-deoxy-2-[^18F]fluoro-D-glucose (FDG, Cardinal Health) and placed back into their home cages. After 30 min, mice were anesthetized with 1.5% isoflurane, placed on a custom-made bed of a nanoScan small animal PET/CT scanner (Mediso Medical Imaging Systems) and scanned for 20 min on a static acquisition protocol, followed by a CT scan. […] Voxel-based repeated measures with Student’s t test comparing baseline to drug were performed, and the resulting parametric images were filtered for statistically significant (p < 0.05) clusters larger than 100 contiguous voxels. All statistical parametric mapping analyses were performed using Matlab R2016 (Mathworks) and SPM12 (University College London).

[3] = Serum and CSF concentrations in monkey (LC-MS/MS); type: in vivo, rhesus monkey (Macaca mulatta); conditions: 0.1 mg kg-1
Protocol: Monkey blood and CSF samples were collected from totally implanted subcutaneous access ports (Access Technologies, Virginia), connected to catheters indwelling in the femoral artery or intrathecal space of the spinal column, respectively. Rodent blood samples and brains were collected immediately following sacrifice at the indicated time points after intraperitoneal injection (10 ml kg^−1) in buffered saline. CSF was immediately frozen on dry ice and stored at −80 °C. Blood samples were allowed to coagulate for 15 min and then centrifuged at 4 °C for 15 min. Serum was collected from the supernatant and stored at a minimum of −30 °C until extraction. To 25 µl of serum, 5 µl of internal standard and 110 µl of methanol were added. Samples were centrifuged for 10 min at 16,200×g at 4 °C and the supernatant was transferred to the autosampler vial for analysis. Brains were cut in half and weighed prior to sample preparation. Half brains were homogenized in 490 µl of 85% ethanol: 15% water containing 0.1% formic acid and 5 µl of internal standard using a polytron homogenizer and centrifuged for 10 min at 16,200×g at 4 °C. […]
Data were acquired using a Nexera XR HPLC (Shimadzu) coupled with a QTRAP 6500 (SCIEX), and was analyzed with Analyst 1.6 (SCIEX). […]
The data were measured using standard curves and quality controls, but it was not validated to ICH guidelines. […]

T1 sequence (P20309 whole entry Y149C/A239G): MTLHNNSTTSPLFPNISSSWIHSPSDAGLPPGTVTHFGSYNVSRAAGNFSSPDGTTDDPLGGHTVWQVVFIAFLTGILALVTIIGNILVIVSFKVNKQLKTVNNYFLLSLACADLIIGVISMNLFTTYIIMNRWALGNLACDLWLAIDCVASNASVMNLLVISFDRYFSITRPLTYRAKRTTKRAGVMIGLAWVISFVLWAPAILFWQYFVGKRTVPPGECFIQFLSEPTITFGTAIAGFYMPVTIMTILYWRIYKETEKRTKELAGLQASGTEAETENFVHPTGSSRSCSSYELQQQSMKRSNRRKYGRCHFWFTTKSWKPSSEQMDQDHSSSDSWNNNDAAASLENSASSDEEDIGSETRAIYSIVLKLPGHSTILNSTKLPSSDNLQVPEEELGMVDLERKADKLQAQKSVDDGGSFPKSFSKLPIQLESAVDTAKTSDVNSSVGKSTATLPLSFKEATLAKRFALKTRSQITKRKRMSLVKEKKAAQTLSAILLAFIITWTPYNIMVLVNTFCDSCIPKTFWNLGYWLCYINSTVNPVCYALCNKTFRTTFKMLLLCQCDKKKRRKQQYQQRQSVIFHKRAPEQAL

Compound	displacement of in vivo [11C]clozapine binding, hM3Dq [1]	brain metabolism ([18F]FDG) [2]	CSF concentration [3]	serum detection [3]
CCN1CCN(C2=Nc3cc(Cl)ccc3Nc3cccc(F)c32)CC1 [JHU37152, 8-Chloro-11-(4-ethylpiperazin-1-yl)-1-fluoro-5H-dibenzo[b,e][1,4]diazepine]	25.1963 and 16.746 and 26.3837			
CCN1CCN(C2=Nc3cc(Cl)ccc3Nc3c(F)cccc32)CC1 [JHU37160, 8-Chloro-11-(4-ethylpiperazin-1-yl)-4-fluoro-5H-dibenzo[b,e][1,4]diazepine]		decreased metabolism	below our system’s detection limit	detected in serum

Source: PMC6788984, “High-potency ligands for DREADD imaging and activation in rodents and monkeys” (Nature Communications, 2019)
